pIC50: −log10 of the molar value. Read-outs that look alike come from different tables or passages of the source.
Experiments:
[1] = tested on: A431 skin cancer cell line; assay: Cancer cell growth inhibition, A431 (SRB); conditions: Homo sapiens, A-431, 72 h, read-out: ID50 (nM) A431
[2] = biological target: EGFR (EGFR type 1 kinase, Upstate) (Homo sapiens, UniProt P00533); assay: Inhibition of EGFR enzyme (fluorescence polarization kinase assay); conditions: for IC50: read-out: IC50 (nM) EGFR, EGFR type 1 kinase, ATP 50 μM
Description: 10 μl of an EGFR (EGFR type 1 kinase, Upstate, 10 ng/μl) was added to each well of a 96-well plate. […] The calculation and analysis of IC50 were carried out by using Microsoft Excel.

[3] = tested on: SK-Br3 breast cancer cell line; assay: Cancer cell growth inhibition, SK-Br3 (SRB); conditions: Homo sapiens, SK-BR-3, 72 h, read-out: ID50 (nM) SK-Br3
[4] = tested on: SW-620 colon/rectal cancer cell line; assay: Cancer cell growth inhibition, SW-620 (SRB); conditions: Homo sapiens, SW-620, 72 h, read-out: IC50 (nM) SW-620
EGFR T790M kinase = EGFR T790M kinase (Homo sapiens, UniProt P00533, T790M); assay: Inhibition of EGFR mutant enzyme (T790M); conditions: for IC50: read-out: IC50 (nM) T790M, EGFR T790M kinase
[5] = tested on: H1975 lung cancer cell line; assay: Cancer cell growth inhibition, H1975 (celltiter); conditions: Homo sapiens, NCI-H1975, 48 h, read-out: IC50 (nM) H1975
Description: The medium was removed from each well of the 96-well plate.
In case of H1975, the cells were diluted with a culture medium to a concentration of 50,000 cells/ml. 100 μl of the diluted cell solution was added to each well of a 96-well plate, and, after 1 day, was washed with a mixture of RPMI, 0.1% FBS and 1% penicillin-streptomycin (PS), followed by replacement of the medium. The plate was allowed to be kept overnight and be treated to various concentrations under the same medium condition for 48 hrs. Similarly to an MTT assay, 15 μl of a celltiter one shot solution (Promega) was added to each well, which was incubated for 2 to 3 hrs, and, then, the absorbance at 490 nm was determined.

EGFR = biological target: T1, EGFR (Homo sapiens, UniProt P00533); assay: Prolongation study in A431 cells (EGFR phosphorylation inhibition); assay type: cell-based; conditions: A-431, 1 μM for 4 hrs, then washed, EGF 100 ng/ml
T1 construct: A skin cancer cell line, A431 (ATCC: CRL-1555), was used; endogenous in cells; host or cells: A431 (ATCC: CRL-1555)
Description: A skin cancer cell line, A431 (ATCC: CRL-1555), was used to test the degrees of the inventive compounds in inhibiting EGFR's phosphorylation and the prolongation of ability to inhibit it thereof.
The cell line was incubated in a culture flask at 37° C. under 95% air and 5% CO2 using a culture medium containing DMEM, 10% FBS and 1% PS. When more than 90% of the total volume of the culture flask became filled with cells, the cultured cell solution was subject to secondary incubation and was poured to each well of a 6-well plate to the extent of 500,000 cells/well. After 24 hrs, the cells were separated from the solution, washed with PBS, and incubated in a culture medium containing DMEM, 0.1% FBS and 1% PS for 16 hrs. The compounds obtained in Examples 1, 17, 19 and 36, and Tarceva as EGFR phosphorylation inhibitors were each added to the cell-containing well to a concentration of 1 μM. After 4 hrs, the cells were separated from the solution, washed 4 times with PBS after every 0, 2, 4 and 8 hrs, and incubated in a culture medium containing DMEM, 0.1% FBS and 1% PS. […] Just before the completion of the reaction, the cultured cell solution was treated with a 100 ng/ml concentration of EGF (Sigma, Cat No. E9644) for 5 mins to induce the activation of EGFR. After the completion of the reaction, the well plate holding the cultured cells was stored at −70° C. In control groups, the replacement of the medium was performed instead of the addition of the EGFR phosphorylation inhibitor, wherein the induction of EGFR activation using EGF was made only in a positive control group and not made in a negative control group.
For Western blot and enzyme immune measuring (ELISA) methods, the well plate stored at −70° C. was allowed to melt to room temperature, and then protein was extracted from the cells in the well plate using a protein extract buffer. The extraction of the protein was performed as follows: 250 μl of the protein extract buffer (Phosphosafe extraction reagent, Calbiochem, Cat No. 71296-3) comprising protease inhibitor cocktail was added to each cell-containing well, which was stirred at room temperature for 5 mins. The cells were collected using a cell scraper and put in an 1.5 ml tube, which was centrifuged at a speed of 16,000×g for 5 mins. The upper layer thus obtained was separated, of which the protein content was determined by a protein assay kit (Bio-rad, Cat No. 500-0116). The protein extracted was diluted with PBS to a concentration of 0.8 mg/ml.
A human EGFR (py1173) immunoassay kit (Biosource, Cat No. KHR9071) was used in the enzyme immune measuring method. 100 μl of the sample which was diluted by 4 folds with a standard dilution buffer in a kit was added to a strip well, which was incubated at a 4° C. refrigerator overnight. The cultured cells was separated therefrom and washed 4 times with 200 μl of a washing buffer. 100 μl of the resulting primary antibody (anti-human EGFR [pY1173]) was put to each strip well, incubated at 37° C. for 1 hr, and washed 4 times with 200 μl of a washing buffer. The resulting secondary antibody (anti-rabbit IgG-HRP) was diluted by 100 folds with an HRP dilution buffer in a kit. 100 μl of the dilute was put to each strip well, incubated at 37° C. for 30 mins, and washed 4 times with 200 μl of the washing buffer. 100 μl of an HRP substrate in a kit was put to each strip well and incubated in a darkroom for 10 to 30 mins. 100 μl of a reaction stop solution was added thereto to terminate the reaction, and then, the absorbance at 450 nm was observed.
Electrophoresis and Western blot methods were conducted based on the conventional methods in the following: An LDS buffer was added to each sample, which was allowed to boil at 70° C. for 10 mins. 10 μl of the resulting solution was loaded to a 12-well gel (Nupage 4˜12% Bis-tris gel, Invitrogen), followed by 120 volt-electrophoresis in a buffer (MOPS electrophoresis buffer, Invitrogen, Cat No. NP0006-1) for 2 hrs. […]

[6] = 0 hr after washing, read-out: EGFR phosphorylation inhibition in A431 cell line (%) 0 hr Avg.
[7] = 8 hrs after washing, read-out: EGFR phosphorylation inhibition in A431 cell line (%) 8 hrs Avg.
[8] = 24 hrs after washing, read-out: EGFR phosphorylation inhibition in A431 cell line (%) 24 hrs Avg.
[9] = 48 hrs after washing, read-out: EGFR phosphorylation inhibition in A431 cell line (%) 48 hrs Avg.

Chain of EGFR T790M kinase (P00533 25-1210 T790M): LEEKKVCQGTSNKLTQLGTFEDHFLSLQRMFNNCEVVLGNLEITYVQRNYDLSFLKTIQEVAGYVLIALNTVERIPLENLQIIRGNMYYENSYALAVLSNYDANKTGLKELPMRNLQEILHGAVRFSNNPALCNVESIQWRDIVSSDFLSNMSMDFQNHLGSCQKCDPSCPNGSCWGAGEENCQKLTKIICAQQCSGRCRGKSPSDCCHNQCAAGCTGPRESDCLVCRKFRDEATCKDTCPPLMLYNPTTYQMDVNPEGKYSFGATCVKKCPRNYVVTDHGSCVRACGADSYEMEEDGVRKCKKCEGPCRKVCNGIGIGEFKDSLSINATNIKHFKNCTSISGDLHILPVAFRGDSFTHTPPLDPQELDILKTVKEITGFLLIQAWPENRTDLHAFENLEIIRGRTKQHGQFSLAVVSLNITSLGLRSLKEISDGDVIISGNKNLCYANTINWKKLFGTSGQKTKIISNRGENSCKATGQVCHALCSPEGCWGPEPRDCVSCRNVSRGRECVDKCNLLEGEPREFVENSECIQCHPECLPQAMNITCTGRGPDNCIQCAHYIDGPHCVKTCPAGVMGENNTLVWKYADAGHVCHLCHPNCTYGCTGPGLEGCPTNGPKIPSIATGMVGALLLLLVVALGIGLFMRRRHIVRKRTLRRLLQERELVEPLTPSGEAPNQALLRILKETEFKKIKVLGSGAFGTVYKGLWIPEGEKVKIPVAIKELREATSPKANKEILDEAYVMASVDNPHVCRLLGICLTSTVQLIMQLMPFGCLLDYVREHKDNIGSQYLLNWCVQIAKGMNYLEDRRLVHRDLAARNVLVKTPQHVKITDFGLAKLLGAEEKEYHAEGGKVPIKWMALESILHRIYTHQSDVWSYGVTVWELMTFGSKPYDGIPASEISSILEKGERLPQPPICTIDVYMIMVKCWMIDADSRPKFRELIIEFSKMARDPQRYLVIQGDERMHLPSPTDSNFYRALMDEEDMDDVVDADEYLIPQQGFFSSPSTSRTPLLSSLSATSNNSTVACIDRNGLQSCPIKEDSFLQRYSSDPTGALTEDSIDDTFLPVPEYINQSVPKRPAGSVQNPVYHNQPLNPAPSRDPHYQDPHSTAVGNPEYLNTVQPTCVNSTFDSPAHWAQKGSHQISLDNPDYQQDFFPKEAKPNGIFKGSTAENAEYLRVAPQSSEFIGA
T1 sequence (P00533 25-1210): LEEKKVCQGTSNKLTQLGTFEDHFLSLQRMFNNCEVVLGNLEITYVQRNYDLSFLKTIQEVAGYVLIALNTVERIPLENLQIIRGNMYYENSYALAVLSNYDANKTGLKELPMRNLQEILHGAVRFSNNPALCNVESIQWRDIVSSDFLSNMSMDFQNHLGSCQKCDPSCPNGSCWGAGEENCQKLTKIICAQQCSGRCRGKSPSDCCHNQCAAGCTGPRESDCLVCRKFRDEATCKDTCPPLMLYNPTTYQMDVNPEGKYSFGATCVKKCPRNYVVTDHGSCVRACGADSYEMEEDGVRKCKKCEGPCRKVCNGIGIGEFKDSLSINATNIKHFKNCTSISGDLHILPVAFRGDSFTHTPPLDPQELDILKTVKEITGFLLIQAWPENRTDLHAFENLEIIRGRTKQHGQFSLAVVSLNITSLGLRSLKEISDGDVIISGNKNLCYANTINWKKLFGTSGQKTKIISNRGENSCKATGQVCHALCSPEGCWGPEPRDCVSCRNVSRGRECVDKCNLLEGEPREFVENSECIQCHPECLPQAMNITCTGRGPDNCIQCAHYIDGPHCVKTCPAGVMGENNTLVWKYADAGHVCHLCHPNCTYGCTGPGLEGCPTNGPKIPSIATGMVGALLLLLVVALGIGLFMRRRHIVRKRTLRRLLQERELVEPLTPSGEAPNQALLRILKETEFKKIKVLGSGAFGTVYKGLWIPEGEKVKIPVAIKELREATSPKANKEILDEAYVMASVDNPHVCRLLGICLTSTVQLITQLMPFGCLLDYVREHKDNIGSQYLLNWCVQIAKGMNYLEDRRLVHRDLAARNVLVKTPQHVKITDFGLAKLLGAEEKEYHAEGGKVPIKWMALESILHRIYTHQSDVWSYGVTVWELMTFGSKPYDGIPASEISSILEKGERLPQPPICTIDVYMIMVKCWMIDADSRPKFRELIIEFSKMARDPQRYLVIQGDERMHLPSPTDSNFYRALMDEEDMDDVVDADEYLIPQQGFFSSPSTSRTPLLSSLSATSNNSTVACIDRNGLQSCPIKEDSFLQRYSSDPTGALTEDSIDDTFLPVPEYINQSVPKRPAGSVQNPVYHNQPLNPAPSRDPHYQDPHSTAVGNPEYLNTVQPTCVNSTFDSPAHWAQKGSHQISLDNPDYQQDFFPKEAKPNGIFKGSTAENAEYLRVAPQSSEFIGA
Chain of EGFR (EGFR type 1 kinase, Upstate) (P00533 25-1210): as above

SMILES | IC50 [1] [nM] | IC50 [2] [nM] | IC50 [3] [nM] | IC50 [4] [nM] | IC50 (EGFR T790M kinase) [nM] | IC50 [5] [nM] | inhibition at 1 µM (EGFR; [6]) [%] | inhibition at 1 µM (EGFR; [7]) [%] | inhibition at 1 µM (EGFR; [8]) [%] | inhibition at 1 µM (EGFR; [9]) [%] | inhibition at 1 µM (EGFR; 72 hrs after washing, read-out: EGFR phosphorylation inhibition in A431 cell line (%) 72 hrs Avg.) [%] | pIC50 [2] | pIC50 (EGFR T790M kinase)
C=CC(=O)N1CC[C@@H](Oc2cc3c(Nc4ccc(F)c(Cl)c4F)ncnc3cc2OC)C[C@@H]1C(=O)OC [Example 133, (2R,4R)-methyl 1-acryloyl-4-(4-(3-chloro-2,4-difluorophenylamino)-7-methoxyquinazolin-6-yloxy)piperidin-2-carboxylate] | 0.7 | 4.4 | 0.2 | > 5000 | 1.7 | 5.4 | – | – | – | – | – | – | –
C=CC(=O)N1CC[C@H](Oc2cc3c(N[C@H](C)c4ccccc4)ncnc3cc2OC)C1 [Example 11] | 8 | 12 | 13 | – | 27 | 167 | – | – | – | – | – | – | –
C=CC(=O)N1CCC(Oc2cc3c(Nc4cccc(Cl)c4F)ncnc3cc2OC)CC1 [Example 34, 1-(4-(4-(3-chloro-2-fluorophenylamino)-7-methoxyquinazolin-6-yloxy)piperidin-1-yl)pro-2-pen-1-one] | 2 | 6 | 0.2 | > 5000 | 5 | 22 | – | – | – | – | – | – | –
C=CC(=O)N1CC[C@H](Oc2cc3c(Nc4ccc(OCc5ccccn5)c(Cl)c4)ncnc3cc2OC)C1 [Example 10, 1-((3S)-3-(4-(3-chloro-4-(pyridin-2-ylmethoxy)phenylamino)-7-methoxyquinazolin-6-yloxy)pyrrolidin-1-yl)pro-2-pen-1-one] | 14 | 5 | 7 | > 5000 | 10 | – | – | – | – | – | – | – | –
C=CC(=O)N1CCC(Oc2cc3c(Nc4ccc(Cl)c(Cl)c4F)ncnc3cc2OC)CC1 [Example 36, 1-(4-(4-(3,4-dichloro-2-fluorophenylamino)-7-methoxyquinazolin-6-yloxy)piperidin-1-yl)pro-2-pen-1-one] | – | – | 0.3 | > 5000 | – | – | 90 | 89 | 81 | 41 | 44 | – | –
C=CC(=O)N1CC(Oc2cc3c(Nc4cccc(Cl)c4)ncnc3cc2OC)C1 [Example 26, 1-(3-(4-(3-chlorophenylamino)-7-methoxyquinazolin-6-yloxy)azetidin-1-yl)pro-2-pen-1-one] | 1.6 | 1.6 | 6 | > 5000 | 3.3 | 17.7 | – | – | – | – | – | – | –
C=CC(=O)N1CCC(Oc2ccc3ncnc(Nc4ccc(F)c(Cl)c4F)c3c2)CC1 [Example 71, 1-(4-(4-(3-chloro-2,4-difluorophenylamino)quinazolin-6-yloxy)piperidin-1-yl)pro-2-pen-1-one] | 8 | – | 5 | – | – | 70 | – | – | – | – | – | 8.57 | 7.62
C=CC(=O)N1CC[C@H](Oc2ccc3ncnc(Nc4ccc(F)c(Cl)c4F)c3c2)C1 [Example 15, 1-((3S)-3-(4-(3-chloro-2,4-difluorophenylamino)quinazolin-6-yloxy)pyrrolidin-1-yl)pro-2-pen-1-one] | 5 | 9 | 25 | – | 54 | 413 | – | – | – | – | – | – | –
C=CC(=O)N1CC[C@H](Oc2ccc3ncnc(Nc4ccc(OCc5cccc(F)c5)c(Cl)c4)c3c2)C1 [Example 16, 1-((3S)-3-(4-(3-chloro-4-(3-fluorobenzyloxy)phenylamino)quinazolin-6-yloxy)pyrrolidin-1-yl)pro-2-pen-1-one] | 15 | 8 | 7 | > 5000 | 47 | – | – | – | – | – | – | – | –
C=CC(=O)N1CC[C@H](Oc2cc3c(Nc4ccc(F)c(Cl)c4F)ncnc3cc2OC)C1 [Example 1, 1-((3S)-3-(4-(3-chloro-2,4-difluorophenylamino)-7-methoxyquinazolin-6-yloxy)pyrrolidin-1-yl)prop-2-en-1-one] | 4 | – | 8 | > 5000 | – | 80 | 71 | 71 | 73 | 42 | – | – | –
C=CC(=O)N1CC(Oc2cc3c(N[C@H](C)c4ccccc4)ncnc3cc2OC)C1 [Example 22, (R)-1-(3-(7-methoxy-4-(1-phenylethylamino)quinazolin-6-yloxy)azetidin-1-yl)pro-2-pen-1-one] | 7 | 6 | 1 | – | 15 | 156 | – | – | – | – | – | – | –
C=CC(=O)N1CC[C@H](Oc2cc3c(Nc4ccc(F)c(Cl)c4F)ncnc3cc2OC)C[C@H]1C(=O)NCCO [Example 126, (2S,4S)-1-acryloyl-4-(4-(3-chloro-2,4-difluorophenylamino)-7-methoxyquinazolin-6-yloxy)-N-(2-hydroxyethyl)piperidin-2-carboxamide] | 5.4 | – | 0.9 | > 5000 | 1.8 | 39 | – | – | – | – | – | – | –
C=CC(=O)N1CC[C@H](Oc2cc3c(Nc4ccc(F)c(Cl)c4F)ncnc3cc2OC)C[C@H]1C(=O)NCCOC [Example 127, (2S,4S)-1-acryloyl-4-(4-(3-chloro-2,4-difluorophenylamino)-7-methoxyquinazolin-6-yloxy)-N-(2-methoxyethyl)piperidin-2-carboxamide] | 3.4 | – | 2.3 | > 5000 | 3.8 | 11 | – | – | – | – | – | – | –
C=C(CN1CCOCC1)C(=O)N1CC(Oc2cc3c(Nc4ccc(F)c(Cl)c4F)ncnc3cc2OC)C1 [Example 105, 1-(3-(4-(3-chloro-2,4-difluorophenylamino)-7-methoxyquinazolin-6-yloxy)azetidin-1-yl)-2-(morpholinomethyl)prop-2-en-1-one] | 1.5 | – | 0.5 | > 5000 | 4 | 8 | – | – | – | – | – | – | –

Source: US8188102B2, “Amide derivative for inhibiting the growth of cancer cells” (Hanmi Holdings Co., Ltd., priority 2007, dated 2012)
